This is an account of results in patent US12195748B2, “Delivery across cell plasma membranes” (Avectas Limited, priority 2014, dated 2025).

Experiment [1] concerns A549 cells. Briefly: Spray-mediated delivery of payloads to A549 cells (fluorescence microscopy, flow cytometry). The format is cell-based, human. Background: A flow cytometer gives signals particle by particle.
Description: Each well of the plate was treated as follows: cell culture medium was removed from the well using a micropipette. Optionally, the well was rinsed twice with 250 μL phosphate buffered saline (PBS) using a micropipette. 20 μL of Solution A containing molecules to be delivered was delivered to the cells using the atomizer. The plate was incubated at room temperature for a period of 30 seconds to 2 minutes depending on the size of the molecule to be delivered, following which 250 μL of Solution B was added to the well using a micropipette. The plate was then incubated at room temperature for 30 seconds, at which time Solution B was removed from the well using a micropipette. 500 μL of culture medium was added to the well using a micropipette. The cells were then returned to a humidified atmosphere with 5% CO^2 at 37° C.
Fluorescence Microscopy. Fluorescein isothiocyanate (FITC)- and DyLight Phosphoramidite (DY547)-labelled molecules were used in accordance with the manufacturer's instructions. Labelled molecules to be delivered to the cells were added to Solution A and delivered to cells as described above herein. Following delivery, the plate was placed onto the stage of a fluorescent microscope (Olympus CKX 41) and the cells were viewed using filters to visualize fluorescence. Photomicrographs were acquired.
Flow Cytometry. […] The cell suspension was loaded into a flow cytometer [Accuri Flow Cytometyer, BD Biosciences] and the fluorescence was analyzed according to manufacturer's instruction. […]
For another experiment, the system named is Jurkat cells. In words: Spray delivery into Jurkat suspension cells. Type of experiment: cell-based. The conditions noted are these: spray after removal of supernatant.
For experiment [2], the system named is A549 cells. Briefly: Micropipette-mediated delivery of payloads to A549 cells (uptake). Type of experiment: cell-based, human. The conditions noted are these: 24-well plates. Here is the method:
FIG. 19 is a graph illustrating Micropipette-mediated delivery of payloads in either 200 μl or 20 μl delivery solution to A549 cells in 24-well plates. Uptake efficiency was measured by flow cytometry (5% m bar) and toxicity was measured by lactate dehydrogenase (LDH) release compared to lysed cells positive control.
Cells were seeded into 24-well plates on Day 0 such that they were 80-90% confluent on Day 1 when delivery was carried out. […] Cells were incubated for 2 min at room temperature (RT) to facilitate uptake. To further facilitate uptake and prevent cell dehydration, 200 μl 0.5×-PBS was then added and cells were incubated for a further 30 sec. This solution was then removed and 400 μl culture medium was added. The cells were then analyzed by fluorescence microscopy.

The subject of the next experiment is cells. In words: Delivery of molecules to cells, spray apparatus versus micropipette (Examples 2-12). Type of experiment: cell-based. From the text:
Delivery of Molecules. An intranasal mucosal atomization device commercially available from LMA Teleflex of NC, USA under catalogue number MAD300 and including an atomizer emitter was set up as follows: the atomizer emitter was positioned 31 mm from the base of the 24-well plate and above the center point of each circular well of the plate. The atomizer emitter was adjusted to allow a pressure of 1.5 bar. A timer was utilized to dispense spray from the atomizer emitter for a period of 1 second. The atomizer emitter was primed by rinsing three times with Solution A containing molecules to be delivered.
Each well of the plate was treated as follows: cell culture medium was removed from the well using a micropipette. Optionally, the well was rinsed twice with 250 μL phosphate buffered saline (PBS) using a micropipette. 20 μL of Solution A containing molecules to be delivered was delivered to the cells using the atomizer. The plate was incubated at room temperature for a period of 30 seconds to 2 minutes depending on the size of the molecule to be delivered, following which 250 μL of Solution B was added to the well using a micropipette. The plate was then incubated at room temperature for 30 seconds, at which time Solution B was removed from the well using a micropipette. 500 μL of culture medium was added to the well using a micropipette. […]
Fluorescence Microscopy. […] Following delivery, the plate was placed onto the stage of a fluorescent microscope (Olympus CKX 41) and the cells were viewed using filters to visualize fluorescence. […]
Flow Cytometry. […] The cell suspension was loaded into a flow cytometer [Accuri Flow Cytometyer, BD Biosciences] and the fluorescence was analyzed according to manufacturer's instruction.
Cell Viability. Following delivery, cell viability was assessed using the CellTiter 96® AQueous One Solution Cell Proliferation Assay (MTS) (Promega) according to the manufacturer's instructions. […] 100 μL of solution was removed from the well and placed into a 96-well plate and absorbance was read at 450 nm using a GloMax 96 Microplate luminometer [Promega].

For experiment [3], the system named is A549 cells. Briefly: Incubation of A549 cells in S Buffer (Medepalli conditions). Type of experiment: cell-based, human. Conditions: 5 min at 4° C. From the text:
A vector-free delivery method was developed based on reversible permeabilisation that would facilitate delivery of payloads into cells in a manner that would retain cell viability and payload functionality. As other groups have done, the following hypothesis was utilized: firstly, permeabilisation could be induced by chemical modification of the cell membrane; secondly, delivery could be enhanced via osmotic pressure brought about by using a hypotonic delivery solution whereby influx of water into the permeabilised cells facilitated influx of a payload and thirdly, cell survival could be enhanced if the hypotonic delivery solution was also buffered and physiological. Based on initial observations, further hypotheses were developed and refined as described later here. For chemical permeabilisation, the most common permeabilising agents are detergents which interact with certain components in cell membranes to create holes (Hapala, I., Crit Rev. Biotech. 1997; 17(2): 105-22). […] (Medepalli K. et al., Nanotechnology 2013; 24(20)). In some examples, potassium acetate is replaced with ammonium acetate in the “S” buffer. They also stated that delivery could be enhanced by adding saponin to the solution. […] Organic solvents such as alcohols can permeabilise cells by dissolving lipid from the cell membrane. […]

The next experiment concerns CHO cells. In words: Spray delivery of labelled proteins into CHO cells. The format is cell-based, Chinese hamster. Conditions: for delivery of labelled protein into cells: FITC or Alexa-488 label. From the text:
A notable application of delivery technology is the intracellular delivery of proteins. Proteins are a very diverse group in terms of their size, shape and chemistry and few methods are currently available for efficient delivery of these molecules. A broad range of proteins of increasing sizes from 18.3 kDa to 443 kDa were labeled with either FITC or Alexa-488 and their delivery by spraying was examined. […] A general trend towards declining delivery efficiencies with increasing size of protein (FIG. 44) was observed.

Where [4] appears, read: DAPI, phallotoxin and MitoTracker Red together.

“Also recorded” adds a separate entry of the source.

Description for Jurkat cells: In this example, the delivery method across cell types was evaluated. […] The cell suspension was placed into a porous cell culture plate insert and a brief gentle vacuum of approximately −0.5 to −0.68 bar was applied for 20-45 sec to remove supernatant before the cells were sprayed (FIG. 41A and FIG. 42).

On to `N=C(N)c1ccc(-c2cc3ccc(C(=N)N)cc3[nH]2)cc1` [DAPI, 4′,6-diamidino-2-phenylindole], for which the co-delivery into cells entry was “successfully co-delivered” with A549 cells [1] (10-kDa dextran-Alexa488 and DAPI together); “successfully co-delivered” in the experiment with A549 cells [1] (setting [4]). Besides, the “delivery to suspension cells” value in the experiment on Jurkat cells was “successfully delivered”.

As for `CC[N+](C)(CC)CCC[n+]1c(-c2ccccc2)c2cc(N)ccc2c2ccc(N)cc21.[I-].[I-]` [PI, propidium iodide], the “uptake viewed by fluorescent microscopy” value in the experiment on A549 cells [2] (20 μL delivery solution) is given as “apparent at the edge of the well but not in the center; also recorded: apparent in some areas of the well but not in others”; with A549 cells [2] (200 μL delivery solution), “most cells immediately stained positive”; in the experiment on A549 cells [2] (200 μL delivery solution, listed as Propidium iodide), “uptake was visible throughout the cell population”. In addition, in the experiment with cells (Example 3, 150 μM, 20 or 40% ethanol), the “delivery rate (percent of cells showing successful delivery), spray compared to micropipette” value is listed as “increases the delivery rate”. Further, in the experiment on cells (Example 3, micropipette, 40% (v/v) ethanol), the “delivery in viable cells” value is “no delivery of molecules was detected in viable cells”. In the experiment on cells (Example 4, spray, 25% ethanol, same matrix), the “simultaneous delivery of two molecules into the cell” value was “results in delivery of the molecule into the cell”.

On to dextran, for which, in the experiment on A549 cells [3], the uptake result is “did not observe uptake”.

For the molecule `ClCc1ccc(C2=c3cc4c5c(c3Oc3c2cc2c6c3CCCN6CCC2)CCC[N+]=5CCC4)cc1.[Cl-]` [MitoTracker Red], the co-delivery into cells result in the experiment with A549 cells [1] (setting [4]) was “successfully co-delivered”. Besides, the “delivery to suspension cells” value in the experiment on Jurkat cells is recorded as “successfully delivered”.

For the molecule “ovalbumin: protein labelled with FITC and delivered into CHO cells”, the “delivery of labelled protein into cells” value in the experiment on CHO cells is given as “successfully delivered”. In addition, the “detection of delivered protein with anti-ovalbumin antibody” value in the experiment on CHO cells (immunofluorescence) is reported as “detected by immunofluorescence”.

B1: catalase: protein labelled with FITC and delivered into CHO cells (protein, UniProt P00432 2-527, looked up)
Catalase: ADNRDPASDQMKHWKEQRAAQKPDVLTTGGGNPVGDKLNSLTVGPRGPLLVQDVVFTDEMAHFDRERIPERVVHAKGAGAFGYFEVTHDITRYSKAKVFEHIGKRTPIAVRFSTVAGESGSADTVRDPRGFAVKFYTEDGNWDLVGNNTPIFFIRDALLFPSFIHSQKRNPQTHLKDPDMVWDFWSLRPESLHQVSFLFSDRGIPDGHRHMNGYGSHTFKLVNANGEAVYCKFHYKTDQGIKNLSVEDAARLAHEDPDYGLRDLFNAIATGNYPSWTLYIQVMTFSEAEIFPFNPFDLTKVWPHGDYPLIPVGKLVLNRNPVNYFAEVEQLAFDPSNMPPGIEPSPDKMLQGRLFAYPDTHRHRLGPNYLQIPVNCPYRARVANYQRDGPMCMMDNQGGAPNYYPNSFSAPEHQPSALEHRTHFSGDVQRFNSANDDNVTQVRTFYLKVLNEEQRKRLCENIAGHLKDAQLFIQKKAVKNFSDVHPEYGSRIQALLDKYNEEKPKNAVHTYVQHGSHLSAREKANL
modifications: FITC label
notes: protein labelled with FITC and delivered into CHO cells
As for B1, the “delivery of labelled protein into cells” value with CHO cells is “successfully delivered”.
